Experimental data reported in PubChem BioAssay AID330 (DTP/NCI, 2004).
Values joined by “and” are separate entries in the source; they are usually repeats but may differ in a detail not shown here. Equal entries are not always repeated. Toxic doses and inconclusive results are not listed. Rule for the calls: active = survival T/C of 150% or more; inactive = T/C below 125% in these data.

System: P388 leukemia ip, CD2F1 mice, survival T/C
Assay: NCI In Vivo Anticancer Drug Screen. Data for tumor model P388 Leukemia (intraperitoneal) in CD2F1 (CDF1) mice
Settings: endpoint: median survival time, higher = longer survival
In short: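 Mice carrying the transplanted tumor received test compound or vehicle. Survival was recorded in each group, and the value is the treated-group measurement divided by that of the vehicle-treated control group.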

[1] = dose: 25.0 mg/kg/injection, schedule: Q01DX009 (ip), vehicle: saline with Tween-80
[2] = dose: 50.0 mg/kg/injection, schedule: Q01DX009 (ip), vehicle: saline with Tween-80
[3] = dose: 50.0 mg/kg/injection, schedule: Q01DX009 (ip), vehicle: Klucel (hydroxypropylcellulose) (HPC)
[4] = dose: 100.0 mg/kg/injection, schedule: Q01DX009 (ip), vehicle: Klucel (hydroxypropylcellulose) (HPC)
[5] = dose: 200.0 mg/kg/injection, schedule: Q01DX009 (ip), vehicle: Klucel (hydroxypropylcellulose) (HPC)
[6] = dose: 50.0 mg/kg/injection, schedule: Q01DX005 (ip), vehicle: Klucel (hydroxypropylcellulose) (HPC)
[7] = dose: 100.0 mg/kg/injection, schedule: Q01DX005 (ip), vehicle: Klucel (hydroxypropylcellulose) (HPC)
[8] = dose: 100.0 mg/kg/injection, schedule: Q01DX009 (ip), vehicle: saline with Tween-80
[9] = dose: 50.0 mg/kg/injection, schedule: Q04DX003 (ip), vehicle: saline with Tween-80
[10] = dose: 100.0 mg/kg/injection, schedule: Q04DX003 (ip), vehicle: saline with Tween-80
[11] = dose: 60.0 mg/kg/injection, schedule: Q01DX005 (ip), vehicle: saline with Tween-80
[12] = dose: 120.0 mg/kg/injection, schedule: Q01DX005 (ip), vehicle: saline with Tween-80
[13] = dose: 240.0 mg/kg/injection, schedule: Q01DX005 (ip), vehicle: saline with Tween-80
[14] = dose: 200.0 mg/kg/injection, schedule: Q04DX003 (ip), vehicle: saline with Tween-80
[15] = dose: 50.0 mg/kg/injection, schedule: Q01DX005 (ip), vehicle: saline with Tween-80
[16] = dose: 100.0 mg/kg/injection, schedule: Q01DX005 (ip), vehicle: saline with Tween-80
[17] = dose: 200.0 mg/kg/injection, schedule: Q01DX005 (ip), vehicle: saline with Tween-80
[18] = dose: 25.0 mg/kg/injection, schedule: Q04DX002 (ip), vehicle: saline with Tween-80
[19] = dose: 50.0 mg/kg/injection, schedule: Q04DX002 (ip), vehicle: saline with Tween-80

Measured: T/C

N#C/C(N)=C(/N)C#N
inactive: dose: 12.5 mg/kg/injection, schedule: Q01DX009 (ip), vehicle: saline with Tween-80 100 % of control and 107 % of control | [1] 102 % of control and 111 % of control | [2] 104 % of control and 117 % of control and 124 % of control

Nc1nncc(-c2ccccc2)n1
inactive: dose: 25.0 mg/kg/injection, schedule: Q01DX009 (ip), vehicle: Klucel (hydroxypropylcellulose) (HPC) 97 % of control | [3] 97 % of control | [4] 96 % of control | [5] 110 % of control

Cc1nc(Nc2ccc(F)cc2)c2c(-c3ccccc3)c[nH]c2n1
inactive: [6] 90 % of control | [7] 88 % of control

O=C(Nc1cccc(Cl)c1)OCCCc1ccncc1
inactive: [2] 96 % of control | [8] 96 % of control

O=c1[nH]cc(S)c(=O)[nH]1
inactive: [1] 105 % of control | [2] 100 % of control | [9] 100 % of control | [8] 110 % of control | [10] 100 % of control

COc1ccc(/C=N/N2CN(C(C)C(=O)O)P(N(CCO)CCO)N=C2N)cc1OC (stereo not given)
inactive: [11] 104 % of control | [12] 99 % of control | [13] 99 % of control

Cc1c2ccccc2c(C)c2c1cc[n+]1ccccc21
inactive: dose: 6.25 mg/kg/injection, schedule: Q04DX003 (ip), vehicle: other 105 % of control | dose: 12.5 mg/kg/injection, schedule: Q04DX003 (ip), vehicle: other 103 % of control | dose: 25.0 mg/kg/injection, schedule: Q04DX003 (ip), vehicle: other 99 % of control

C/C(=C\C=C1\N(C)c2ccccc2C1(C)C)N=C(C#N)C#N
inactive: [9] 93 % of control | [10] 91 % of control | [14] 96 % of control

CCN(CC)c1nc(Cl)nc(NC(C)C)n1
inactive: [10] 100 % of control | [14] 95 % of control

O=c1cc(Cc2ccccc2)[nH]c(=S)[nH]1
inactive: [10] 109 % of control | [14] 104 % of control | dose: 400.0 mg/kg/injection, schedule: Q04DX003 (ip), vehicle: saline with Tween-80 100 % of control

COc1ccc2c(c1)CSCC2O (stereo not given)
inactive: dose: 50.0 mg/kg/injection, schedule: Q01DX009 (ip), vehicle: other 95 % of control | dose: 100.0 mg/kg/injection, schedule: Q01DX009 (ip), vehicle: other 100 % of control | dose: 200.0 mg/kg/injection, schedule: Q01DX009 (ip), vehicle: other 96 % of control

CC1C=CC(C)c2c(-c3ccccc3)oc(-c3ccccc3)c21 (stereo not given)
inactive: [8] 95 % of control | dose: 200.0 mg/kg/injection, schedule: Q01DX009 (ip), vehicle: saline with Tween-80 104 % of control | dose: 400.0 mg/kg/injection, schedule: Q01DX009 (ip), vehicle: saline with Tween-80 108 % of control

Oc1ccc(C2(c3ccc(O)cc3)CC3CC2C2CCCC32)cc1 (stereo not given)
inactive: [3] 98 % of control | [4] 97 % of control | [5] 97 % of control

Nc1n[n+](-c2ccc3ccccc3c2)no1
inactive: dose: 3.13 mg/kg/injection, schedule: Q01DX009 (ip), vehicle: water 98 % of control | dose: 6.25 mg/kg/injection, schedule: Q01DX009 (ip), vehicle: water 109 % of control | dose: 12.5 mg/kg/injection, schedule: Q01DX009 (ip), vehicle: water 120 % of control | dose: 25.0 mg/kg/injection, schedule: Q01DX009 (ip), vehicle: water 120 % of control

Cn1c(NCCN2CCOCC2)c(C(=O)/C=C/c2ccccc2)c(=O)n(C)c1=O
inactive: [15] 98 % of control | [16] 92 % of control | [17] 95 % of control

OCC1CC2C3CC(CO)C(C3)C2C1 (stereo not given)
inactive: [11] 105 % of control | [12] 100 % of control | [13] 98 % of control

CCCCCCCCCCCCCCCC[N+](C)(C)CCSC(C)=O
inactive: dose: 0.78 mg/kg/injection, schedule: Q01DX009 (ip), vehicle: acetone 100 % of control | dose: 1.56 mg/kg/injection, schedule: Q01DX009 (ip), vehicle: acetone 104 % of control | dose: 3.12 mg/kg/injection, schedule: Q01DX009 (ip), vehicle: acetone 104 % of control | dose: 6.25 mg/kg/injection, schedule: Q01DX009 (ip), vehicle: acetone 107 % of control

CCCCN=C(N)NN=C(c1ccc(C)cc1)c1ccc(C)cc1
inactive: [18] 102 % of control | [19] 99 % of control

CCOc1ccc(/C=C/C(C)=N/NC(N)=Nc2ccc(Cl)cc2)cc1
inactive: dose: 12.5 mg/kg/injection, schedule: Q01DX005 (ip), vehicle: saline with Tween-80 96 % of control | dose: 25.0 mg/kg/injection, schedule: Q01DX005 (ip), vehicle: saline with Tween-80 97 % of control | [15] 107 % of control and 97 % of control

CCOC(=O)C1(c2ccccc2)c2c(cnc3ccccc23)C(=O)N1C (stereo not given)
inactive: [11] 101 % of control | [12] 97 % of control | [13] 97 % of control

COc1cccc2c1C(=O)c1c(O)c3c(c(O)c1C2=O)CC(O)(C(C)=O)CC3OC1CC(NC2=CC(=O)CC(C)(C)C2)C(O)C(C)O1 (stereo not given)
inactive: dose: 3.13 mg/kg/injection, schedule: Q04DX003 (ip), vehicle: distilled water + Tween-80 103 % of control | dose: 6.25 mg/kg/injection, schedule: Q04DX003 (ip), vehicle: distilled water + Tween-80 103 % of control | dose: 12.5 mg/kg/injection, schedule: Q04DX003 (ip), vehicle: distilled water + Tween-80 100 % of control | dose: 25.0 mg/kg/injection, schedule: Q04DX003 (ip), vehicle: distilled water + Tween-80 100 % of control | dose: 50.0 mg/kg/injection, schedule: Q04DX003 (ip), vehicle: distilled water + Tween-80 109 % of control

Cc1cc(C)c(OC(=O)NCCCl)c(C)c1
inactive: [6] 97 % of control | [7] 97 % of control | dose: 200.0 mg/kg/injection, schedule: Q01DX005 (ip), vehicle: Klucel (hydroxypropylcellulose) (HPC) 96 % of control

OCCCOCCCOCCCOCCCOCCCOCCCO
inactive: [15] 100 % of control | [16] 96 % of control | [17] 102 % of control

Cc1ccc(OC/C=N\N=C(N)N)cc1C
inactive: [11] 101 % of control | [12] 93 % of control

C/C(=N\N=C(\[Se])N(C)C)c1ccccn1
inactive: dose: 12.5 mg/kg/injection, schedule: Q04DX003 (ip), vehicle: saline with Tween-80 106 % of control | dose: 25.0 mg/kg/injection, schedule: Q04DX003 (ip), vehicle: saline with Tween-80 106 % of control | [9] 106 % of control

COc1c(CC(C)O)c2c3c(CC(C)O)c(OC)c(=O)c4cc(O)c5c(c6c(c(O)cc(c1=O)c26)OCO5)c43 (stereo not given)
inactive: [18] 101 % of control | [19] 109 % of control | dose: 100.0 mg/kg/injection, schedule: Q04DX002 (ip), vehicle: saline with Tween-80 101 % of control | dose: 200.0 mg/kg/injection, schedule: Q04DX002 (ip), vehicle: saline with Tween-80 115 % of control | dose: 400.0 mg/kg/injection, schedule: Q04DX002 (ip), vehicle: saline with Tween-80 115 % of control

CCN(CC)CCCC(C)Nc1cc(C)nc2ccc(N(C)C)cc12 (stereo not given)
inactive: dose: 15.0 mg/kg/injection, schedule: Q01DX005 (ip), vehicle: saline with Tween-80 108 % of control | dose: 30.0 mg/kg/injection, schedule: Q01DX005 (ip), vehicle: saline with Tween-80 105 % of control | [11] 100 % of control and 103 % of control
